Reference: publication PMC5884060 (Biochemistry, 2018)

Legend:
PDIA1 C53A and C397A = format: binding; settings: from IC50 values; PDIA1 C53A and C397A 50 μg/mL in MCF-7 lysates 1 mg/mL, CA-Rh 8 μM
PDIA1 [1] = molecular target: T1, PDIA1 (Homo sapiens, UniProt P07237); assay: Insulin turbidity assay; settings: for kinact/KI: 0.5 μM PDIA1, 0.16 mM insulin, 1 mM DTT, varying concentrations and pre-incubation times
[2] = molecular target: T2, purified, recombinant PDIA1 (Homo sapiens, UniProt P07237); assay: In-gel fluorescence screen: covalent modification of purified recombinant PDIA1; format: binding; settings: compound 5 μM, PDIA1 50 μg/mL, 1 hour, TAMRA in-gel fluorescence
T2 sequence (P07237 18-508): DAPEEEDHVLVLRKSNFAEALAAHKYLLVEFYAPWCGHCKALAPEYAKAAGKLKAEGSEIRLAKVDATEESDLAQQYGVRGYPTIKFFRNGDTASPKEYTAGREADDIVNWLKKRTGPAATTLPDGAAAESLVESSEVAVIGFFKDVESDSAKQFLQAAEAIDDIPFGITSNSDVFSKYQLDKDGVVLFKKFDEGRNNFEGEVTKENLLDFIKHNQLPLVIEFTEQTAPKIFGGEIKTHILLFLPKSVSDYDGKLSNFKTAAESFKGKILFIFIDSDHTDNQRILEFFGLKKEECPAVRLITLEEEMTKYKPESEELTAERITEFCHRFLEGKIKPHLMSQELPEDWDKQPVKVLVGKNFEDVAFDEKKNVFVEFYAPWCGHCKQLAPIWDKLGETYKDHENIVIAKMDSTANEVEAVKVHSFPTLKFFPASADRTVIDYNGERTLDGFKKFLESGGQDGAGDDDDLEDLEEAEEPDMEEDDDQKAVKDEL

[3] = molecular target: T2, purified, recombinant PDIA1; assay: In-gel fluorescence: recombinant PDIA1 in the background of MCF-7 cell lysates; format: binding; settings: PDIA1 50 μg/mL in MCF-7 cell lysates 1 mg/mL
endogenous PDIA1 = endogenous PDIA1 (Homo sapiens, UniProt P07237); assay: In-gel fluorescence: endogenous PDIA1 in MCF-7 lysates; format: binding; settings: compound 5 μM, MCF-7 lysates 2 mg/mL
Chain of endogenous PDIA1 (P07237 18-508): as above

SKOV-3 = assay: qPCR analysis of UPR target genes; format: cell-based; settings: SKOV-3 cells
[4] = test system: HEK293^Trex cells stably expressing ^FTALLC; assay: FTALLC secretion by ELISA; format: cell-based; settings: KSC-34 40 μM, 4 h pretreatment, 2 h conditioning, compared to vehicle
[5] = test system: HEK293^Trex cells stably expressing ^FTALLC; assay: Viability by Cell Titre Glo; format: cell-based; settings: KSC-34 40 μM, Cell Titre Glo after media conditioning
HEK293^DAX cells = assay: [35S] metabolic labeling, fraction FTALLC secreted; format: cell-based; settings: KSC-34 40 μM added 1 h prior to labeling and throughout
PDIA1 [6] = molecular target: T1, PDIA1; settings: 5 μM, MCF-7 cells, 3 hours at 37 °C
PDIA1 C53A = PDIA1 C53A (Homo sapiens, UniProt P07237, C53A); settings: KSC-34 5 μM, protein 50 μg/mL, 1 hour
Chain of PDIA1 C53A (P07237 18-508 C53A): as the sequence (P07237 18-508) above, with C36A counted along it

PDIA3 = PDIA3 (Homo sapiens, UniProt P30101); settings: PDIA3 50 μg/mL, with or without MCF-7 lysates 1 mg/mL
Chain of PDIA3 (P30101 25-505, species assumed): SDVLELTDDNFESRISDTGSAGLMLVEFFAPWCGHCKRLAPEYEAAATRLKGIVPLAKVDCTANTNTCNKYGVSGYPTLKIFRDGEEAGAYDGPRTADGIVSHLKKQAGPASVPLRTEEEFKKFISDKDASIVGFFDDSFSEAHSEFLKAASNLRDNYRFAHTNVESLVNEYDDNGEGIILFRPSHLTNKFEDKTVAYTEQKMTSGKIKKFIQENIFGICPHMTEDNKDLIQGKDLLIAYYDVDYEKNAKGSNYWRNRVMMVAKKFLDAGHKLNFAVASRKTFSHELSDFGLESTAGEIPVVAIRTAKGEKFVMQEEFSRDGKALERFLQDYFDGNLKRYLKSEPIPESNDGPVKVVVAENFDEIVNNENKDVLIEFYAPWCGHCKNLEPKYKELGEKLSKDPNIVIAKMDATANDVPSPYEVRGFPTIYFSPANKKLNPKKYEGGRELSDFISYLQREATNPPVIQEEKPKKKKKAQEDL

PDIA4 [7] = molecular target: T3, PDIA4 (Homo sapiens, UniProt P13667); settings: PDIA4 50 μg/mL, with or without MCF-7 lysates 1 mg/mL
T3 sequence (P13667 21-645, species assumed): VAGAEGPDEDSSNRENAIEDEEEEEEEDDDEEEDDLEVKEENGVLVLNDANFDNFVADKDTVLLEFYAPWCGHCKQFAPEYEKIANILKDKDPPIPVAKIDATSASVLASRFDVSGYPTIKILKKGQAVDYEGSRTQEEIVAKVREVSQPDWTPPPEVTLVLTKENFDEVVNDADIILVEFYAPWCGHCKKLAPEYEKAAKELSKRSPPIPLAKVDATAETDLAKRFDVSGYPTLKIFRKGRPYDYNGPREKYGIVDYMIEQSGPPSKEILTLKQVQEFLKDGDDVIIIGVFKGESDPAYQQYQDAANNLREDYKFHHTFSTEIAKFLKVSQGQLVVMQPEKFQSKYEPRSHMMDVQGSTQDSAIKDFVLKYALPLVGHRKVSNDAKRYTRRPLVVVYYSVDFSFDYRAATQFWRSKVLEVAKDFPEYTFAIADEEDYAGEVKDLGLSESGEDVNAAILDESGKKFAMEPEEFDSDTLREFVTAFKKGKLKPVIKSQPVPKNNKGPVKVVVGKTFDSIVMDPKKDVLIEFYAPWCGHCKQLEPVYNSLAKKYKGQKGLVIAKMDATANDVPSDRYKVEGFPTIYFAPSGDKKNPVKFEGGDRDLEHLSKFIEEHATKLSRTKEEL

PDIA1 [8] = molecular target: T1, PDIA1; settings: MCF-7 cells, KSC-34 5 μM; ~5 in the DMSO control
PDIA6 = PDIA6 (Homo sapiens, UniProt Q15084); settings: MCF-7 cells, KSC-34 5 μM
Chain of PDIA6 (Q15084 20-440): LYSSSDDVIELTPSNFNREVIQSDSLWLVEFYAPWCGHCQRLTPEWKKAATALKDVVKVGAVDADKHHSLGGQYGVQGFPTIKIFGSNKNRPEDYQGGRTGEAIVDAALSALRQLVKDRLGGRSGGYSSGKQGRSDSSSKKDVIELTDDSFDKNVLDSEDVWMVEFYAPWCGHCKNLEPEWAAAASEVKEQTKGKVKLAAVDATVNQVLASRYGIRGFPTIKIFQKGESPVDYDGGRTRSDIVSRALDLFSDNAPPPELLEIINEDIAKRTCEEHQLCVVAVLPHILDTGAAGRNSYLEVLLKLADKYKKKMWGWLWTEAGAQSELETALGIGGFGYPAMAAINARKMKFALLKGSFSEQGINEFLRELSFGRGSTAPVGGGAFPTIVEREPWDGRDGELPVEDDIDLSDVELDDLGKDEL

MCF-7 cells [9] = settings: read-out: EC50 MTT cell viability
MCF-7 cells [10] = test system: MCF-7 cells
PDIA1 [11] = molecular target: T1, PDIA1; settings: HEK293^DAX cells, KSC-34 40 μM, 1 h pre-treatment
PDIA4 [12] = molecular target: T3, PDIA4; settings: HEK293^DAX cells, KSC-34 40 μM, 1 h pre-treatment
[13] = test system: HEK293^DAX cells stably expressing PDIA1 shRNA; settings: KSC-34 40 μM, ELISA and [35S] metabolic labeling
[14] = molecular target: prostaglandin E synthase 2 (PTGES2) (Homo sapiens, UniProt Q9H7Z7); assay: Proteome-wide target enrichment, LC/LC-MS/MS spectral counts; settings: MCF-7 cells, KSC-34 5 μM
Chain of prostaglandin E synthase 2 (PTGES2) (Q9H7Z7 whole entry): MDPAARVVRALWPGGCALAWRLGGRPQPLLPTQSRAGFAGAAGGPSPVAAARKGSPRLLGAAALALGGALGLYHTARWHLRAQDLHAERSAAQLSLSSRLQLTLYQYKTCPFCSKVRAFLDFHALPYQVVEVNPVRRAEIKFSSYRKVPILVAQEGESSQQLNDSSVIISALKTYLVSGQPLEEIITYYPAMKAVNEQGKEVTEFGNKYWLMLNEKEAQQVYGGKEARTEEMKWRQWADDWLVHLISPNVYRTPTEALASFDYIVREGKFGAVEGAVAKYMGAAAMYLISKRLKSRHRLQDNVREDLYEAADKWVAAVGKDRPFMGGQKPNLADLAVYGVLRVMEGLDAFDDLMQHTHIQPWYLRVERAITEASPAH

T1 sequence (P07237 18-508): as the sequence (P07237 18-508) above

16F16 [reference compound]
selectivity for the a domain over the a′ domain (PDIA1 C53A and C397A): 2 fold
kinact/KI (PDIA1 [1]): 252 M⁻¹ s⁻¹

C#CCNc1nc(NCCNC(=O)CCl)nc(N(C)CCCCc2ccccc2)n1 [KSC-34]
covalent modification of PDIA1 relative to RB-11-ca [2]: equal or greater potency compared to RB-11-ca
covalent modification of PDIA1 relative to RB-11-ca [3]: equal or greater potency to RB-11-ca
covalent modification of endogenous PDIA1 relative to RB-11-ca (endogenous PDIA1): equal or greater potency toward PDIA1 compared to RB-11-ca
selectivity for the a domain over the a′ domain (PDIA1 C53A and C397A): 30 fold
effect on IRE1α-dependent UPR transcripts (SKOV-3): no significant effects
reduction of FTALLC levels in conditioned media [4]: 40%
reduction in cellular viability [5]: 20%
reduction of fraction of [35S]-labeled FTALLC secreted (HEK293^DAX cells): 30%
potency of PDIA1 modification in living cells compared to RB-11-ca (PDIA1 [6]): ~ 8 fold
labeling of PDIA1 C53A (PDIA1 C53A): absence of fluorescence
labeling of PDIA3 (PDIA3): absence of fluorescence
labeling of PDIA4 (PDIA4 [7]): absence of fluorescence
average spectral counts matched to PDIA1 (PDIA1 [8]): ~ 2000 spectral counts
spectral counts PDIA6 (PDIA6): ~ 20 spectral counts
EC50 (MCF-7 cells [9]): 82 µM
timeframe of IRE1α activation (MCF-7 cells [10]): < 6 h
activation of the PERK and ATF6 arms of the UPR (MCF-7 cells [10]; 4–40 μM, 3 hours at 37 °C): no significant activation
increase in SEC24D and ERDJ4 mRNA levels (MCF-7 cells [10]; >20 μM KSC-34, 3 hours, relative to DMSO): ~ 2 fold
effect on IRE1α-dependent UPR transcripts (A549 cells): no significant effects
interaction of PDIA1 with FTALLC (co-IP) (PDIA1 [11]): disrupted this interaction
interaction of PDIA4 with FTALLC (co-IP) (PDIA4 [12]): does not influence the interaction between these proteins
KSC-34-dependent reduction in FTALLC secretion upon depletion of PDIA1 [13]: attenuated
kinact/KI (PDIA1 [1]): 9660 M⁻¹ s⁻¹
potency (kinact/KI) relative to RB-11-ca (PDIA1 [1]; insulin turbidity assay): ~ 3 fold
average spectral counts PTGES2 [14]: ~ 120 spectral counts
